Measured values from PubChem BioAssay AID2060901 (Molecular Pharmacology Branch, DTP, NCI, 2025).
Values belong to the molecule of their own block, whether it stands above or below them.

Test system: 422866-222-R5-J1-PDC complex spheroids viability
Assay: Anticancer human tumor 422866-222-R5-J1-PDC patient-derived pancreatic adenocarcinoma cell line growth inhibition [RAS]
Settings: for viability, T/C: stronger effect = lower value
Method in brief: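 Tumour cells grown as complex spheroids with HUVEC endothelial cells and mesenchymal stem cells, treated with RAS pathway inhibitor combinations. Each agent spans half-log steps from near clinical Cmax, or 10 microM where Cmax is unknown.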

[1] = curve of first compound, second compound 0.000949 µM
[2] = curve of first compound, second compound 0.003 µM
[3] = curve of first compound, second compound 0.00949 µM
[4] = curve of first compound, second compound 0.03 µM
[5] = curve of first compound, second compound 0.0949 µM
[6] = curve of first compound, second compound 0.3 µM
[7] = second compound 0.000949 µM, first compound 0.0316 µM
[8] = second compound 0.000949 µM, first compound 0.1 µM
[9] = second compound 0.003 µM, first compound 0.0316 µM
[10] = second compound 0.003 µM, first compound 0.1 µM
[11] = second compound 0.00949 µM, first compound 0.0316 µM
[12] = second compound 0.00949 µM, first compound 0.1 µM
[13] = second compound 0.03 µM, first compound 0.0316 µM
[14] = second compound 0.03 µM, first compound 0.1 µM
[15] = second compound 0.0949 µM, first compound 0.0316 µM
[16] = second compound 0.0949 µM, first compound 0.1 µM
[17] = second compound 0.3 µM, first compound 0.0316 µM
[18] = second compound 0.3 µM, first compound 0.1 µM
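Note: spheroids exposed to compounds for 7 days.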
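Throughout, for viability, T/C: 100% = DMSO vehicle control viability.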

IC50 (curve of first compound, second compound 0.0316 µM): < 3.16 nM | IC50 (curve of first compound, second compound 0.1 µM): < 3.16 nM | IC50 (curve of first compound, second compound 0.316 µM): < 3.16 nM | IC50 (curve of first compound, second compound 1 µM): < 3.16 nM | IC50 (curve of first compound, second compound 3.16 µM): < 3.16 nM | IC50 (curve of first compound, second compound 10 µM): < 3.16 nM
SMILES: C=CC(=O)N1CCN(c2nc(OCC3CCCN3C)nc3c(F)c(-c4nc(N)cc(C)c4C(F)(F)F)c(Cl)cc23)C(C)C1 (configuration not stated) + C#Cc1c(F)ccc2cc(O)cc(-c3ncc4c(N5CC6CCC(C5)N6)nc(OCC56CCCN5CC(F)C6)nc4c3F)c12
viability, T/C (second compound 0.0316 µM, first compound 0.00316 µM): 29.7% | viability, T/C (second compound 0.0316 µM, first compound 0.01 µM): 24% | viability, T/C (second compound 0.0316 µM, first compound 0.0316 µM): 21.9% | viability, T/C (second compound 0.0316 µM, first compound 0.1 µM): 19.4% | viability, T/C (second compound 0.0316 µM, first compound 0.316 µM): 19% | viability, T/C (second compound 0.0316 µM, first compound 1 µM): 22% | viability, T/C (second compound 0.1 µM, first compound 0.00316 µM): 28.4% | viability, T/C (second compound 0.1 µM, first compound 0.01 µM): 24.6% | viability, T/C (second compound 0.1 µM, first compound 0.0316 µM): 21.2% | viability, T/C (second compound 0.1 µM, first compound 0.1 µM): 18.6% | viability, T/C (second compound 0.1 µM, first compound 0.316 µM): 20.9% | viability, T/C (second compound 0.1 µM, first compound 1 µM): 21.3% | viability, T/C (second compound 0.316 µM, first compound 0.00316 µM): 29.6% | viability, T/C (second compound 0.316 µM, first compound 0.01 µM): 24.6% | viability, T/C (second compound 0.316 µM, first compound 0.0316 µM): 25.7% | viability, T/C (second compound 0.316 µM, first compound 0.1 µM): 19.2% | viability, T/C (second compound 0.316 µM, first compound 0.316 µM): 21% | viability, T/C (second compound 0.316 µM, first compound 1 µM): 21% | viability, T/C (second compound 1 µM, first compound 0.00316 µM): 20.5% | viability, T/C (second compound 1 µM, first compound 0.01 µM): 21.4% | viability, T/C (second compound 1 µM, first compound 0.0316 µM): 21.7% | viability, T/C (second compound 1 µM, first compound 0.1 µM): 19.8% | viability, T/C (second compound 1 µM, first compound 0.316 µM): 18.8% | viability, T/C (second compound 1 µM, first compound 1 µM): 17.5% | viability, T/C (second compound 3.16 µM, first compound 0.00316 µM): 21.6% | viability, T/C (second compound 3.16 µM, first compound 0.01 µM): 18.1% | viability, T/C (second compound 3.16 µM, first compound 0.0316 µM): 21% | viability, T/C (second compound 3.16 µM, first compound 0.1 µM): 22.5% | viability, T/C (second compound 3.16 µM, first compound 0.316 µM): 19% | viability, T/C (second compound 3.16 µM, first compound 1 µM): 22.6% | viability, T/C (second compound 10 µM, first compound 0.00316 µM): 17.9% | viability, T/C (second compound 10 µM, first compound 0.01 µM): 20.3% | viability, T/C (second compound 10 µM, first compound 0.0316 µM): 20.8% | viability, T/C (second compound 10 µM, first compound 0.1 µM): 17.5% | viability, T/C (second compound 10 µM, first compound 0.316 µM): 20.7% | viability, T/C (second compound 10 µM, first compound 1 µM): 17.6%

IC50 [1]: < 0.316 nM | IC50 [2]: < 0.316 nM | IC50 [3]: < 0.316 nM | IC50 [4]: < 0.316 nM | IC50 [5]: < 0.316 nM | IC50 [6]: < 0.316 nM
SMILES: CC(C)n1nc(-c2ccc3oc(N)nc3c2)c2c(N)ncnc21 + CCn1c(-c2cccnc2C(C)OC)c2c3cc(ccc31)N1CCOC(CC(NC(=O)C(C(C)C)N(C)C(=O)C3(F)CCN(C(=O)C#CC(C)(C)N(C)C)CC3)C(=O)N3CCCC(N3)C(=O)OCC(C)(C)C2)C1
viability, T/C (second compound 0.000949 µM, first compound 0.000316 µM): 26.9% | viability, T/C (second compound 0.000949 µM, first compound 0.001 µM): 24.3% | viability, T/C (second compound 0.000949 µM, first compound 0.00316 µM): 24.7% | viability, T/C (second compound 0.000949 µM, first compound 0.01 µM): 22.9% | viability, T/C [7]: 23.1% | viability, T/C [8]: 22.1% | viability, T/C (second compound 0.003 µM, first compound 0.000316 µM): 23.4% | viability, T/C (second compound 0.003 µM, first compound 0.001 µM): 18.7% | viability, T/C (second compound 0.003 µM, first compound 0.00316 µM): 21% | viability, T/C (second compound 0.003 µM, first compound 0.01 µM): 17.6% | viability, T/C [9]: 14.1% | viability, T/C [10]: 16.5% | viability, T/C (second compound 0.00949 µM, first compound 0.000316 µM): 23.4% | viability, T/C (second compound 0.00949 µM, first compound 0.001 µM): 25.9% | viability, T/C (second compound 0.00949 µM, first compound 0.00316 µM): 19.4% | viability, T/C (second compound 0.00949 µM, first compound 0.01 µM): 16.5% | viability, T/C [11]: 14.7% | viability, T/C [12]: 12.2% | viability, T/C (second compound 0.03 µM, first compound 0.000316 µM): 21.5% | viability, T/C (second compound 0.03 µM, first compound 0.001 µM): 17.6% | viability, T/C (second compound 0.03 µM, first compound 0.00316 µM): 17.5% | viability, T/C (second compound 0.03 µM, first compound 0.01 µM): 16.6% | viability, T/C [13]: 15.4% | viability, T/C [14]: 15.6% | viability, T/C (second compound 0.0949 µM, first compound 0.000316 µM): 17.8% | viability, T/C (second compound 0.0949 µM, first compound 0.001 µM): 15.4% | viability, T/C (second compound 0.0949 µM, first compound 0.00316 µM): 16.9% | viability, T/C (second compound 0.0949 µM, first compound 0.01 µM): 15.2% | viability, T/C [15]: 12.2% | viability, T/C [16]: 12.5% | viability, T/C (second compound 0.3 µM, first compound 0.000316 µM): 15.4% | viability, T/C (second compound 0.3 µM, first compound 0.001 µM): 18.8% | viability, T/C (second compound 0.3 µM, first compound 0.00316 µM): 15.2% | viability, T/C (second compound 0.3 µM, first compound 0.01 µM): 15.1% | viability, T/C [17]: 12.3% | viability, T/C [18]: 10.2%

IC50 [1]: < 31.6 nM | IC50 [2]: < 31.6 nM | IC50 [3]: < 31.6 nM | IC50 [4]: < 31.6 nM | IC50 [5]: < 31.6 nM | IC50 [6]: < 31.6 nM
SMILES: Cc1nc(N2CCC3(CC2)COC(C)C3N)c(CO)nc1Sc1ccnc(N)c1Cl (configuration not stated) + CCn1c(-c2cccnc2C(C)OC)c2c3cc(ccc31)N1CCOC(CC(NC(=O)C(C(C)C)N(C)C(=O)C3(F)CCN(C(=O)C#CC(C)(C)N(C)C)CC3)C(=O)N3CCCC(N3)C(=O)OCC(C)(C)C2)C1
viability, T/C [7]: 23.6% | viability, T/C [8]: 22.8% | viability, T/C (second compound 0.000949 µM, first compound 0.316 µM): 17.9% | viability, T/C (second compound 0.000949 µM, first compound 1 µM): 17.6% | viability, T/C (second compound 0.000949 µM, first compound 3.16 µM): 16.4% | viability, T/C (second compound 0.000949 µM, first compound 10 µM): 17.5% | viability, T/C [9]: 20.9% | viability, T/C [10]: 18.5% | viability, T/C (second compound 0.003 µM, first compound 0.316 µM): 17.1% | viability, T/C (second compound 0.003 µM, first compound 1 µM): 17.9% | viability, T/C (second compound 0.003 µM, first compound 3.16 µM): 15.9% | viability, T/C (second compound 0.003 µM, first compound 10 µM): 23.2% | viability, T/C [11]: 20% | viability, T/C [12]: 16.3% | viability, T/C (second compound 0.00949 µM, first compound 0.316 µM): 15.8% | viability, T/C (second compound 0.00949 µM, first compound 1 µM): 14.1% | viability, T/C (second compound 0.00949 µM, first compound 3.16 µM): 16.4% | viability, T/C (second compound 0.00949 µM, first compound 10 µM): 13.6% | viability, T/C [13]: 20.8% | viability, T/C [14]: 15.6% | viability, T/C (second compound 0.03 µM, first compound 0.316 µM): 12.8% | viability, T/C (second compound 0.03 µM, first compound 1 µM): 14.9% | viability, T/C (second compound 0.03 µM, first compound 3.16 µM): 13.5% | viability, T/C (second compound 0.03 µM, first compound 10 µM): 13.8% | viability, T/C [15]: 15.6% | viability, T/C [16]: 13.4% | viability, T/C (second compound 0.0949 µM, first compound 0.316 µM): 13.9% | viability, T/C (second compound 0.0949 µM, first compound 1 µM): 11.9% | viability, T/C (second compound 0.0949 µM, first compound 3.16 µM): 15.6% | viability, T/C (second compound 0.0949 µM, first compound 10 µM): 14.2% | viability, T/C [17]: 17.5% | viability, T/C [18]: 13.9% | viability, T/C (second compound 0.3 µM, first compound 0.316 µM): 14.9% | viability, T/C (second compound 0.3 µM, first compound 1 µM): 12.5% | viability, T/C (second compound 0.3 µM, first compound 3.16 µM): 17.3% | viability, T/C (second compound 0.3 µM, first compound 10 µM): 18.8%

IC50 (curve of compound): > 10000 nM
SMILES: CC(=O)OC12COC1CC(O)C1(C)C(=O)C(O)C3=C(C)C(OC(=O)C(O)C(NC(=O)OC(C)(C)C)c4ccccc4)CC(O)(C(OC(=O)c4ccccc4)C21)C3(C)C (configuration not stated)
viability, T/C (compound 0.0316 µM): 60% [middle of 4 runs] | viability, T/C (compound 0.1 µM): 71.8% [middle of 4 runs] | viability, T/C (compound 0.316 µM): 71.4% [middle of 4 runs] | viability, T/C (compound 1 µM): 78.2% [middle of 4 runs] | viability, T/C (compound 10 µM): 77.4% [middle of 4 runs]
